# From paper PMC8196787, “Design and Pharmacodynamics of Recombinant Fungus Defensin NZL with Improved Activity against Staphylococcus hyicus In Vitro and In Vivo” (International Journal of Molecular Sciences, 2021)
# Values joined by “and” are separate entries in the source; they are usually repeats but may differ in a detail not shown here. Equal values may be shown once. Read-outs that look alike come from different tables or passages of the source. Positions of bridges follow the written chain, without caps; N, C: chain ends. Residues, ends and D or L forms follow the SMILES beside them.
# What was measured:
# S. hyicus NCTC 10350 [1] = experiment: Mouse peritonitis model, survival; type: in vivo; conditions: 7 days
# Procedure: The mice (6 mice/group) were intraperitoneally infected with the exponential phase S. hyicus NCTC 10350 cells (1 × 10^9 CFU/mL, 1 mL) to establish a mouse peritonitis model. […] Survival of mice was recorded daily for 7 days.
# S. hyicus NCTC 10350 [2] = experiment: Mouse peritonitis model, bacterial translocation; type: in vivo; conditions: 24 h post-treatment, mean, n = 5
# Procedure: (§1) Likewise, mice (15 mice/group) were injected with the exponential phase S. hyicus NCTC 10350 cells (1 × 10^9 CFU/mL, 1 mL) and treated with 10 mg/kg peptides or 60 mg/kg CRO. After 2 and 24 h post-treatment, sera were collected to test the levels of cytokines using enzyme linked immunosorbent assay (ELISA) kit. To evaluate bacterial translocation, organs were harvest from mice at 24-h post-treatment for colony counting; then, organs were removed from mice at 5 d post-treatment and observed through a light microscope to assess organ injury. The uninfected mice, the treated mice with CRO or PBS were served as the blank control, positive and negative control, respectively.
# IL-6 = experiment: Mouse peritonitis model, serum cytokine ELISA; type: in vivo
# Procedure: as §1
# IL-1β = experiment: Mouse peritonitis model, serum cytokine ELISA; type: in vivo
# Procedure: as §1
# TNF-α = experiment: Mouse peritonitis model, serum cytokine ELISA; type: in vivo
# Procedure: as §1
# S. hyicus NCTC 10350 [3] = experiment: Time-killing curves; type: cell-based
# Procedure: Time-kill curves were performed to assess the bactericidal rates of peptides against S. hyicus NCTC 10350 [25]. […] The samples were taken at regular intervals for colony counting. Cells treated with PBS and CRO were used as the negative control and positive control.
# S. aureus ATCC 43300 = experiment: microbe, parasite or virus in culture; type: cell-based; conditions: read-out: MIC
# Procedure: (§2) The microbroth dilution method was used to evaluate the MIC values of new derivative peptides. […] The MIC value was defined as the lowest concentration where no visible bacteria growth occurred after overnight incubation. CRO was used as the positive control. All assays were conducted in triplicate.
# S. hyicus NCTC 10350 [4] = experiment: microbe, parasite or virus in culture; type: cell-based; conditions: MHB, 37 °C, 16–20 h, triplicate
# Procedure: as §2
# S. hyicus ACCC 61734 = experiment: microbe, parasite or virus in culture; type: cell-based; conditions: for MIC: S. hyicus ACCC 61734 (clinical strain), microbroth dilution, MHB, 37 °C, 16–20 h, triplicate, read-out: MIC
# Procedure: as §2
# S. aureus ATCC 25923 = experiment: microbe, parasite or virus in culture; type: cell-based; conditions: MHB, 37 °C, 16–20 h, triplicate
# Procedure: as §2
# [5] = system: intracellular S. hyicus NCTC 10350 in Hacat cells; type: cell-based; conditions: 24 h treatment, mean, n = 3; for Killing rate of intracellular S. hyicus: 1000× MIC
# Procedure: Hacat cells (2.5 × 10^5 cells/mL) were dispensed into a 12-well plate for 24 h. Besides, the mid-log phase S. hyicus NCTC 10350 (2.5 × 10^7 CFU/mL) were coincubated with Hacat cells for 0.5 h. Then, lysostaphin was supplemented to kill extracellular bacteria. Hereafter, cells were treated with peptides or CRO for 24 h and lysed with lysis buffer. The intracellular bacteria were processed for colony counting.
# S. hyicus NCTC 10350 [6] = experiment: Mouse peritonitis model, organ injury by light microscope; type: in vivo; conditions: 10 mg/kg, organs harvested at 5 d
# Procedure: as §1
# S. hyicus NCTC 10350 [7] = experiment: pH stability, inhibition zone assay; type: physicochemical; conditions: 3 h, triplicate
# Procedure: (§3) The stability of NZL or NZ2114 against S. hyicus NCTC 10350 was conducted by inhibition zone assays. To evaluate the thermal stability, 64 μg/mL NZL or NZ2114 was incubated at different temperatures (20 °C, 40 °C, 60 °C, 80 °C, and 100 °C) for 1 h. Besides, aliquots of NZL or NZ2114 were dissolved in different pH buffers in a range from 2.0 to 10.0 at 37 °C for 3 h to analyze the pH stability. NZL or NZ2114 was mixed with pepsin or trypsin solutions at a ratio of 10:1 (w/w) to determine the protease stability. The untreated peptides and buffers alone were used as positive controls and negative controls, respectively. All assays were conducted in triplicate.
# mouse erythrocytes = experiment: Hemolysis; type: cell-based; conditions: at 256 μg/mL; 8% (v/v) mouse erythrocytes in 0.9% NaCl, 37 °C, 1 h, 540 nm; n = 3
# Procedure: The hemolytic activity of peptides against fresh mouse erythrocytes was evaluated as described previously. In brief, 8% (v/v) erythrocyte solution in 0.9% NaCl was mixed with peptide solution (1–256 μg/mL) in an equal volume; then the mixtures were incubated at 37 °C for 1 h, centrifuged at 5000 rpm for 5 min and measured at 540 nm on a microplate reader. The absorbance of 0.9% NaCl (A0) and 0.1% Triton X-100 (A100) was used as controls. The hemolysis percentages of peptide were calculated by the following equation: Hemolysis (%) = [(A − A0)/(A100 − A0)] × 100.
# Hacat cells = experiment: Cytotoxicity, MTT assay; type: cell-based; conditions: within 256 μg/mL (1–256 μg/mL), n = 3
# Procedure: The cytotoxicity of peptides toward Hacat cells was determined by the 3-(4,5-dimethylthiazol-2-yl)-2,5-diphenyltetrazolium bromide (MTT) assay according to a previous study.
# S. hyicus NCTC 10350 [8] = experiment: Thermal stability, inhibition zone assay; type: physicochemical; conditions: 1 h, 64 μg/mL, inhibition zone against S. hyicus NCTC 10350, triplicate
# Procedure: as §3
# [9] = microbroth dilution, read-out: MIC
smiles,measurement,setting,value
"CO/N=C(\C(=O)N[C@@H]1C(=O)N2C(C(=O)O)=C(CSc3nc(=O)c(=O)[nH]n3C)CS[C@H]12)c1csc(N)n1 [CRO, ceftriaxone, reference compound]",Survival rate,"S. hyicus NCTC 10350 [1]; 30 mg/kg and 60 mg/kg i.p. at 2 h and 8 h post-infection, compared with NZL 5 mg/kg and 10 mg/kg",identical survival rates with NZL
same,Bacterial counts in blood,S. hyicus NCTC 10350 [2]; 60 mg/kg,1.02 Log10 CFU/0.1 g
same,Bacterial counts in kidneys,S. hyicus NCTC 10350 [2]; 60 mg/kg,4.69 Log10 CFU/0.1 g
same,Bacterial counts in livers,S. hyicus NCTC 10350 [2]; 60 mg/kg,4.35 Log10 CFU/0.1 g
same,Bacterial counts in lungs,S. hyicus NCTC 10350 [2]; 60 mg/kg,5.21 Log10 CFU/0.1 g
same,Bacterial counts in spleens,S. hyicus NCTC 10350 [2]; 60 mg/kg,5.19 Log10 CFU/0.1 g
same,Serum level of IL-6,"IL-6; 60 mg/kg, 2 h after treatment",981.56 pg/mL
same,Serum level of IL-6,"IL-6; 60 mg/kg, 24 h after treatment",85.74 pg/mL
same,Serum level of IL-1β,"IL-1β; 60 mg/kg, 2 h after treatment",94.75 pg/mL
same,Serum level of IL-1β,"IL-1β; 60 mg/kg, 24 h after treatment",11.60 pg/mL
same,Serum level of TNF-α,"TNF-α; 60 mg/kg, 2 h after treatment",233.16 pg/mL
same,Serum level of TNF-α,"TNF-α; 60 mg/kg, 24 h after treatment",3.43 pg/mL
same,Bacterial count at regrowth,"S. hyicus NCTC 10350 [3]; 2× MIC, at 24 h",5.65 Log10 CFU/mL
same,MIC,"S. aureus ATCC 43300; Staphylococcus aureus, ATCC43300, S. aureus ATCC 43300, microbroth dilution, MHB, 37 °C, 16–20 h, triplicate",12.1 µM
same,MIC,"S. aureus ATCC 43300; Staphylococcus aureus, ATCC43300",8 µg/mL
same,MIC,"S. hyicus NCTC 10350 [4]; Staphylococcus hyicus, NCTC10350, microbroth dilution, read-out: MIC",8 µg/mL and 12.1 µM
same,MIC,"S. hyicus ACCC 61734; Staphylococcus hyicus, ACCC61734",4 µg/mL and 6.04 µM
same,MIC,"S. aureus ATCC 25923; Staphylococcus aureus, ATCC25923, microbroth dilution, read-out: MIC",4 µg/mL and 6.04 µM
same,Decrease of intracellular S. hyicus,"[5]; 1× MIC, colony counting",88.53%
same,Decrease of intracellular S. hyicus,[5]; 5× MIC,89.25%
same,Decrease of intracellular S. hyicus,[5]; 10× MIC,83.87%
same,Killing rate of intracellular S. hyicus,[5],97.6%
"CC[C@H](C)[C@@H]1NC(=O)[C@H](CO)NC(=O)[C@H](CCCCN)NC(=O)[C@@H]2CSSC[C@@H](C(=O)N[C@@H](Cc3ccc(O)cc3)C(=O)O)NC(=O)[C@H](CCCCN)NC(=O)[C@@H]3CSSC[C@H](NC(=O)[C@H](CCC(N)=O)NC(=O)[C@H]([C@@H](C)CC)NC(=O)[C@H](CC(=O)O)NC(=O)[C@H](CC(=O)O)NC(=O)[C@H](CCC(=O)O)NC(=O)[C@H](CO)NC(=O)[C@H](Cc4c[nH]c5ccccc45)NC(=O)[C@@H]4CCCN4C(=O)CNC(=O)[C@H](CC(N)=O)NC(=O)[C@@H](NC(=O)CNC(=O)[C@H](Cc4ccccc4)NC(=O)CN)CSSC[C@H](NC(=O)[C@H](Cc4ccc(O)cc4)NC(=O)CNC(=O)CNC(=O)[C@H](CCCCN)NC(=O)[C@H](Cc4ccc(O)cc4)NC(=O)CNC(=O)[C@H](CCCCN)NC1=O)C(=O)N[C@@H](C)C(=O)N[C@@H](CCCCN)C(=O)NCC(=O)NCC(=O)N[C@@H](Cc1ccccc1)C(=O)N[C@@H](C(C)C)C(=O)N3)C(=O)N[C@@H](Cc1c[nH]cn1)C(=O)N[C@@H](CC(N)=O)C(=O)N[C@@H](Cc1c[nH]cn1)C(=O)N2 [NZL] (H-GFGCNGPWSEDDIQCHNHCKSIKGYKGGYCAKGGFVCKCY-OH; disulfide 4-30, 15-37, 19-39; N-terminus and C-terminus assumed)",Survival rate,"S. hyicus NCTC 10350 [1]; 5 mg/kg i.p. at 2 h and 8 h post-infection, ICR mice, S. hyicus NCTC 10350 10^9 CFU i.p., 6 mice/group",50%
same,Survival rate,"S. hyicus NCTC 10350 [1]; 10 mg/kg i.p. at 2 h and 8 h post-infection, ICR mice, S. hyicus NCTC 10350 10^9 CFU i.p., 6 mice/group",83.3%
same,"Organ injury (livers, spleens, lungs, kidneys)",S. hyicus NCTC 10350 [6],apparently less damaged
same,pH stability,"S. hyicus NCTC 10350 [7]; pH 2 to 10, 37 °C, inhibition zone against S. hyicus NCTC 10350",retained strong stable activity
same,Activity in the acidic environment,"S. hyicus NCTC 10350 [7]; pH 4, 37 °C, inhibition zone against S. hyicus NCTC 10350, relative to untreated peptide",94%
same,Maximum hemolysis,mouse erythrocytes,1.11%
same,Bacterial counts in blood,S. hyicus NCTC 10350 [2]; 10 mg/kg,0.16 Log10 CFU/0.1 g
same,Bacterial counts in kidneys,S. hyicus NCTC 10350 [2]; 10 mg/kg,0.25 Log10 CFU/0.1 g
same,Bacterial counts in livers,S. hyicus NCTC 10350 [2]; 10 mg/kg,0.34 Log10 CFU/0.1 g
same,Bacterial counts in lungs,S. hyicus NCTC 10350 [2]; 10 mg/kg,0.62 Log10 CFU/0.1 g
same,Bacterial counts in spleens,S. hyicus NCTC 10350 [2]; 10 mg/kg,0.58 Log10 CFU/0.1 g
same,Serum level of IL-6,"IL-6; 10 mg/kg, 2 h after treatment",1029.28 pg/mL
same,Serum level of IL-6,"IL-6; 10 mg/kg, 24 h after treatment",44.92 pg/mL
same,Serum level of IL-1β,"IL-1β; 10 mg/kg, 2 h after treatment",74.00 pg/mL
same,Serum level of IL-1β,"IL-1β; 10 mg/kg, 24 h after treatment",24.02 pg/mL
same,Serum level of TNF-α,"TNF-α; 10 mg/kg, 2 h after treatment",184.14 pg/mL
same,Serum level of TNF-α,"TNF-α; 10 mg/kg, 24 h after treatment",5.75 pg/mL
same,Reduction of bacterial counts,"S. hyicus NCTC 10350 [3]; 1× MIC, MHB",7.37 Log10 CFU/mL
same,Time within which S. hyicus NCTC 10350 cells were killed completely,"S. hyicus NCTC 10350 [3]; 2× and 4× MIC, 1 × 10^5 CFU/mL in MHB, colony counting",≤ 8 h
same,MIC,"S. aureus ATCC 43300; S. aureus ATCC 43300, microbroth dilution, MHB, 37 °C, 16–20 h, triplicate",0.46 µM
same,MIC,S. hyicus NCTC 10350 [4]; microbroth dilution,4 µg/mL
same,MIC,S. hyicus NCTC 10350 [4]; [9],0.92 µM
same,MIC,S. hyicus ACCC 61734,0.23 µM
same,Change of MIC against S. hyicus ACCC 61734 compared with NZ2114,"S. hyicus ACCC 61734; clinical strain, NZL vs NZ2114",four-fold
same,MIC,S. aureus ATCC 25923; microbroth dilution,4 µg/mL
same,MIC,S. aureus ATCC 25923; [9],0.92 µM
same,Minimum cell viability,Hacat cells,60.28%
same,Decrease of intracellular S. hyicus,[5]; 10× MIC,84.95%
same,Killing rate of intracellular S. hyicus,[5],99.96%
same,Thermal stability,S. hyicus NCTC 10350 [8]; 20 to 80 °C,good thermal stability
same,Activity after heating,S. hyicus NCTC 10350 [8]; 100 °C,no activity
